Non-standard residues stand in square brackets, D forms with d. Residues, ends and D or L forms follow the SMILES beside them. No end group written: not given here. Arg(Me) = CNC(=N)NCCC[C@H](N)C(=O)O; d3Pal = N[C@H](Cc1cccnc1)C(=O)O; GABA = NCCCC(=O)O; azaGly = NNC(=O)O
These molecules were tested against T1, hOT7T175 (Homo sapiens, UniProt Q969F8, L364H) (assay: not given). Conditions: hOT7T175/CHO, FLIPR, evaluation for 40 seconds after initiation of the reaction.
T1 construct: expressed in transfected cells
Assay type: cell-based

T1 sequence (Q969F8 whole entry L364H): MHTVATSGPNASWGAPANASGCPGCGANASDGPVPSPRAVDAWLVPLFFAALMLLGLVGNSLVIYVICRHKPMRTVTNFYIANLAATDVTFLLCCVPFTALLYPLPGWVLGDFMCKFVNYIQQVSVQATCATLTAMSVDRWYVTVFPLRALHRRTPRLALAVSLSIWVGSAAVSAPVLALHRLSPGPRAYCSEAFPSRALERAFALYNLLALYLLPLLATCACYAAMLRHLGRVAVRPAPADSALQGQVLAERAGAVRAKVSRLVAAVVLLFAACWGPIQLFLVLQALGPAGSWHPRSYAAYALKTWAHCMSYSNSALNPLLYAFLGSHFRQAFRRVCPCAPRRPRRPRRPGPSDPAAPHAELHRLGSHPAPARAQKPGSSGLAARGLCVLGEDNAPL

Molecule	Specific Act. (EC50/MS10 EC50)
Cyclopropanecarbonyl-Asn-Ser-Phe-AzaGly-Leu-Arg(Me)-Trp-NH2 [Compound No. 534]	5.6
D-Arg-Acp-D-Tyr-D-Trp-Abu-Ser-Phe-AzaGly-Leu-Arg(Me)-Trp-NH2 [Compound No. 561]	1.6
D-Arg-Acp-D-Tyr-D-Trp-Asn-Thr-Phe-AzaGly-Leu-Arg(Me)-Trp-NH2 [Compound No. 541]	2.0
D-Arg-D-Arg-Acp-D-Tyr-D-Trp-Asn-Thr-Phe-AzaGly-Leu-Arg(Me)-Trp-NH2 [Compound No. 542]	1.4
D-Trp-Asn-Thr-Phe-AzaGly-Leu-Arg(Me)-Trp-NH2 ([dW]NTF[azaGly]L[Arg(Me)]W-NH2; N-terminus assumed; SMILES CNC(=N)NCCC[C@H](NC(=O)[C@H](CC(C)C)NC(=O)NNC(=O)[C@H](Cc1ccccc1)NC(=O)[C@@H](NC(=O)[C@H](CC(N)=O)NC(=O)[C@H](N)Cc1c[nH]c2ccccc12)[C@@H](C)O)C(=O)N[C@@H](Cc1c[nH]c2ccccc12)C(N)=O) [Compound No. 665]	1.1
D-Trp-D-Pya(4)-Asn-Ser-Phe-AzaGly-Leu-Arg(Me)-Trp-NH2 [Compound No. 572]	0.7
D-Tyr-D-Pya(4)-Asn-Hyp-Phe-AzaGly-Leu-Arg(Me)-Trp-NH2 [Compound No. 527]	3.3
D-Tyr-D-Pya(4)-Asn-Phg-Phe-AzaGly-Leu-Arg(Me)-Trp-NH2 [Compound No. 530]	3.4
D-Tyr-D-Pya(4)-Asn-Pro-Phe-AzaGly-Leu-Arg(Me)-Trp-NH2 [Compound No. 528]	1.4
D-Tyr-D-Pya(4)-Asn-Ser-Phe-AzaGly-Leu-Arg-Phe-NH2 [Compound No. 521]	2.4
D-Tyr-D-Pya(4)-Asn-Tle-Phe-AzaGly-Leu-Arg(Me)-Trp-NH2 [Compound No. 529]	1.8
Glycoloyl-D-Trp-Asn-Thr-Phe-AzaGly-Leu-Arg(Me)-Trp-NH2 (Glycoloyl-[dW]NTF[azaGly]L[Arg(Me)]W-NH2) [Compound No. 680]	2.5
Glycoloyl-D-Tyr-D-Trp-Asn-Thr-Phe-AzaGly-Leu-Arg(Me)-Trp-NH2 (Glycoloyl-[dY][dW]NTF[azaGly]L[Arg(Me)]W-NH2) [Compound No. 681]	1.2
Me-D-Tyr-D-Trp-Asn-Thr-Phe-AzaGly-Leu-Arg(Me)-Trp-NH2 [Compound No. 570]	0.5
Phenylacetyl-Asn-Ser-Phe-AzaGly-Leu-Arg(Me)-Trp-NH2 [Compound No. 519]	2.4
[dR][dR][GABA][dY][dW]NTF[azaGly]L[Arg(Me)]W-NH2 [Compound No. 556]	2.8
[dR][dR][dR][GABA][dY][dW]NTF[azaGly]L[Arg(Me)]W-NH2 [Compound No. 557]	3.2
[dY][dW]NVF[azaGly]L[Arg(Me)]W-NH2 [Compound No. 539]	1.2

What follows are molecules tested against T2, hOT7T175 (Homo sapiens, UniProt Q969F8) (assay: Intracellular Ca ion level-increasing activity using FLIPR (180 seconds; specific activity to Metastin (1-54))). Conditions: hOT7T175/CHO, change in intracellular calcium ion level for 180 seconds, Tables 21-23.
T2 construct: expressed in transfected cells
Assay type: cell-based
Method: In accordance with the method described in JPA 2000-312590, the intracellular Ca ion level-increasing activity was measured using FLIPR. […]
The intracellular Ca ion level-increasing activity of the synthetic peptide in hOT7T175/CHO was determined using FLIPR (Molecular Devices, Inc.).
hOT7T175/CHO was subcultured in DMEM supplemented with 10% dialyzed fetal bovine serum (hereinafter abbreviated as dFBS) and provided for the experiment (hereinafter abbreviated as 10% dFBS/DMEM). The hOT7T175/CHO was suspended in 10% dFBS-DMEM in 15×10^4 cells/ml. The suspension was inoculated on a 96-well plate for FLIPR (Black Plate Clear Bottom, Coster, Inc.) at 200 μl each (3.0×10^4 cells/200 μl), followed by incubation at 37° C. overnight in a 5% CO2 incubator. The cells thus incubated were used (hereinafter simply referred to as the cell plate). Then, 21 ml of HANKS/HBSS (9.8 g of HANKS', 0.35 g of sodium hydrogencarbonate, 20 ml of 1M HEPES; after adjusting the pH to 7.4 with 1N sodium hydroxide, the mixture was subjected to sterilization through a filter), 210 μl of […] Probenecid and 210 μl of fetal bovine serum (FBS) were mixed (HANKS/HBSS-Probenecid-FBS).
Furthermore, 2 vials of Fluo3-AM (50 μg/vial) were dissolved in 21 μL of dimethylsulfoxide and 21 μL of 20% Pluronic acid. The resulting solution was added to and mixed with 10 ml of HANKS/HBSS-Probenecid-FBS described above. After the culture medium was removed, the mixture was dispensed onto the cell plate in 100 μl each/well, followed by incubation at 37° C. for an hour in a 5% CO2 incubator (pigment loading). The peptide was dissolved in dimethylsulfoxide in 1×10^−3 M. The peptide solution was diluted with HANKS'/HBSS containing 2.5 mM Probenecid and 0.2% BSA. The dilution was transferred to a 96-well plate for FLIPR (V-Bottom plate, Coster, Inc.) (hereinafter referred to as a sample plate). After completion of the pigment loading onto the cell plate, the cell plate washed 4 times with wash buffer, which was obtained by adding 2.5 mM Probenecid to HANKS'/HBSS, using a plate washer to leave 100 μL of wash buffer after the washing. The cell plate and the sample plate were set in FLIPR and 0.05 ml of a sample from the sample plate was automatically transferred to the cell plate with the FLIPR device to promote the cell response. A change in intracellular calcium ion level for 180 seconds was measured with passage of time.

T2 sequence (Q969F8 whole entry L364H): as above

Molecule	intracellular Ca ion level-increasing activity [specific activity to Metastin (1-54)]
1-Oxo-isochroman-3-carbonyl-AzaGly-Leu-Arg(Me)-Trp-NH2 [Compound No. 408]	⅓
2-(Indol-3-yl)ethylcarbamoyl-Phe-AzaGly-Leu-Arg(Me)-Phe-NH2 [Compound No. 364]	1
2-Azetidinecarbonyl-Phe-AzaGly-Leu-Arg(Me)-Trp-NH2 [Compound No. 466]	⅓
2-Hydroxyisobutyryl-Phe-AzaGly-Leu-Arg(Me)-Trp-NH2 [Compound No. 453]	1
2-Methylnicotinoyl-Phe-AzaGly-Leu-Arg(Me)-Trp-NH2 [Compound No. 443]	½
2-Pyridinecarbonyl-Phe-AzaGly-Leu-Arg(Me)-Trp-NH2 [Compound No. 435]	10
3-(3-Indolyl)propionyl-Phe-Gly-Leu-Arg-Phe-NH2 [Compound No. 352]	⅓
3-(3-Pyridyl)propionyl-Phe-AzaGly-Leu-Arg(Me)-Phe-NH2 [Compound No. 340]	⅕
3-Phenylpropionyl-AzaGly-Leu-Arg(Me)-Phe-NH2 [Compound No. 362]	1/10
3-Pyridinecarbonyl-Phe-AzaGly-Leu-Arg(Me)-Trp-NH2 [Compound No. 432]	2
4-Pyridinecarbonyl-Phe-AzaGly-Leu-Arg(Me)-Nal(2)-NH2 [Compound No. 461]	⅓
4-Pyridinecarbonyl-Phe-AzaGly-Leu-Arg(Me)-Phe-NH2 [Compound No. 471]	1
4-Pyridinecarbonyl-Phe-AzaGly-Leu-Har-Trp-NH2 [Compound No. 478]	⅓
4-Pyridinecarbonyl-Phe-AzaGly-Leu-Orn-Trp-NH2 [Compound No. 477]	⅕
4-Pyridinecarbonyl-Phe-AzaGly-Val-Arg(Me)-Trp-NH2 [Compound No. 460]	⅓
5-Methylnicotinoyl-Phe-AzaGly-Leu-Arg(Me)-Trp-NH2 [Compound No. 444]	⅓
6-Hydroxynicotinoyl-Phe-AzaGly-Leu-Arg(Me)-Trp-NH2 [Compound No. 462]	1
CNC(=N)NCCC[C@H](NC(=O)[C@H](CC(C)C)NC(=O)NNC(=O)[C@H](Cc1ccccc1)NC(=O)[C@H](CO)NC(=O)[C@H](CC(N)=O)NC(=O)[C@H](Cc1ccccc1)NC(=O)[C@H](N)Cc1cccnc1)C(=O)N[C@@H](Cc1ccccc1)C(N)=O [Compound No. 256, D-Pya(3)-Phe-Asn-Ser-Phe-AzaGly-Leu-Arg(Me)-Phe-NH2] (H-[d3Pal]FNSF[azaGly]L[Arg(Me)]F-NH2)	1
CNC(=N)NCCC[C@H](NC(=O)[C@H](CC(C)C)NC(=O)NNC(=O)[C@H](Cc1ccccc1)NC(=O)[C@H](CO)NC(=O)[C@H](CC(N)=O)NC(=O)[C@H](Cc1ccccc1)NC(=O)[C@@H](CC(N)=O)NC(=O)[C@H](N)Cc1ccc(O)cc1)C(=O)N[C@@H](Cc1ccccc1)C(N)=O [Compound No. 257, D-Tyr-D-Asn-Phe-Asn-Ser-Phe-AzaGly-Leu-Arg(Me)-Phe-NH2] (H-[dY][dN]FNSF[azaGly]L[Arg(Me)]F-NH2)	3
CNC(=N)NCCC[C@H](NC(=O)[C@H](CC(C)C)NC(=O)NNC(=O)[C@H](Cc1ccccc1)NC(=O)[C@H](CO)NC(=O)[C@H](CC(N)=O)NC(=O)[C@H](Cc1c[nH]c2ccccc12)NC(=O)[C@H](CC(N)=O)NC(=O)[C@H](N)Cc1cccnc1)C(=O)N[C@@H](Cc1ccccc1)C(N)=O [Compound No. 258, D-Pya(3)-Asn-Trp-Asn-Ser-Phe-AzaGly-Leu-Arg(Me)-Phe-NH2] (H-[d3Pal]NWNSF[azaGly]L[Arg(Me)]F-NH2)	2

From patent US8778871B2 (Takeda Pharmaceutical Company Limited, priority 2004, dated 2014)
